Where “and” joins values, the source holds several entries; their conditions need not be identical. Identical values can stand only once. Like-named read-outs stand apart in the source and are kept apart here.
What was measured:
[1] = biological target: T1, SARS-CoV-2 M^pro (Severe acute respiratory syndrome coronavirus 2, UniProt P0DTD1); assay: SARS-CoV-2 M^pro inhibition assay (chromogenic peptide substrate); format: biochemical; settings: for inhibition at 200 µM: read-out: effect at 200 μM (%); for obs.: observation at the end of the M^pro experiment; for solubility during the biological testing: result in words, M^pro testing; for IC50: M^pro, substrate 200 μM
T1 construct: 30 μL of Mpro enzyme (Sigma-Aldrich) at a final concentration of 10 μg/mL; purchased Sigma-Aldrich
Experimental: Inhibitory effects against M^pro of all compounds were evaluated based on the experimental procedure provided by the manufacturer with some modifications.
[…] of chemicals dissolved in DMSO, with a final concentration of 200 μM, were put in triplicate to each well of a 96-well flat bottom microplate. After that, the plate was incubated for 10 min at room temperature with 30 μL of Mpro enzyme (Sigma-Aldrich) at a final concentration of 10 μg/mL diluted in buffer containing 25 mM HEPES (Sigma-Aldrich) and 0.2% of Tween-20 (Sigma-Aldrich). Furthermore, the chromogenic peptide substrate (Thr-Ser-Ala-Val-Leu-Gln-pNA, Sigma-Aldrich) was added in a volume of 10 μL to each well, at a final concentration of 200 μM and incubated for another 45 min at 37 °C. […] As directed by the manufacturer, with minor modifications, the experiment was carried out to ascertain the half-maximum inhibitory concentration (IC50) that may block the activity of the M^pro enzyme. […] The plate was then kept at room temperature for 10 min. Following this time interval, 10 μL of a 200 μM final concentration of chromogenic peptide substrate (Sigma-Aldrich) was added to each well, and the mixture was incubated for an additional 45 min at 37 °C.

[2] = Cytotoxicity against Vero cells (resazurin); format: cell-based; settings: African green monkey, read-out: CC50 ± SD (μM) Vero
Experimental: (§1) In a 96-well flat bottom microplate, THP-1 cells (12 × 10^4 cells/well) were seeded with 180 μL of RPMI 1640 medium (Sigma-Aldrich) without phenol red supplemented with 10% FBS (Sigma-Aldrich), 2 mM L-glutamine (Gibco), […] (Sigma-Aldrich), 10 U/mL penicillin (Gibco), and 10 μg/mL streptomycin (Gibco) in the presence of 100 ng/mL of phorbol-12-myristate-13-acetate (PMA) (Sigma-Aldrich). The microplate was then incubated at 37 °C in a 5% CO2 atmosphere for 72 h. Vero cells ([…]) were seeded in 180 μL of RPMI 1640 media (Sigma-Aldrich), which was then supplemented with 10% FBS (Sigma-Aldrich), 10 U/mL penicillin (Gibco), and 10 μg/mL streptomycin (Gibco). The cells were then incubated for 24 h at 37 °C in a 5% CO2 environment. Each target chemical, diluted in RPMI-1640 media (Sigma-Aldrich) without FBS, at doses of 150, 50, 16.7, and 5.6 μM, was applied in 20 μL to each of the two cell lines. The positive and negative controls were 50 and 0.3% DMSO (Sigma-Aldrich), respectively. The plates were incubated in an environment containing 5% CO2 for 67 h at 37 °C. Next, 20 μL of resazurin (250 μg/mL) from Sigma-Aldrich was added, and the mixture was incubated at 37 °C for 5 h. The microplate was measured using a Tecan Model Infinite M200 spectrophotometer at 530 and 590 nm in wavelengths. Every experiment was run three times.[23],[24]

[3] = Cytotoxicity against THP-1 cells (resazurin); format: cell-based; settings: human, THP-1 cells differentiated with PMA, read-out: CC50 ± SD (μM) THP-1
Experimental: as §1

[4] = biological target: T2, ZIKV NS2B/NS3 (Zika virus, UniProt Q32ZE1); assay: ZIKV NS2B/NS3 protease fluorogenic substrate assay; format: biochemical; settings: for inhibition at 20 µM: read-out: screening at 20 μM (%); for inhibition at 100 µM: read-out: screening at 100 μM (%); for mechanism of inhibition: ZIKV NS2B/NS3, IC50 at four substrate concentrations, Dixon plots
T2 construct: tested against the nonstructural protease of ZIKV (NS2B/NS3)
T2 sequence (Q32ZE1 1421-1460): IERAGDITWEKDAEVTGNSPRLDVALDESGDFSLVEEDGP
T2 sequence (Q32ZE1 1499-1676): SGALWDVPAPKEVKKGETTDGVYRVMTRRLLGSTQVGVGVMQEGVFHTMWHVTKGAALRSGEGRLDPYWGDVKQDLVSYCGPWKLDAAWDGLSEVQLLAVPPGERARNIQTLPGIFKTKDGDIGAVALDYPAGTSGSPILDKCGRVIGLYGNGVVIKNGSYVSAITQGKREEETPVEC

[5] = biological target: DENV-2 NS2B/NS3 (Dengue virus type 2, UniProt P29990); assay: DENV-2 NS2B/NS3 protease fluorogenic substrate assay; settings: for inhibition at 100 µM: read-out: screening at 100 μM (%), DENV-2 NS2B/NS3, 100 μM compound
Chain of DENV-2 NS2B/NS3 (P29990 1398-1437): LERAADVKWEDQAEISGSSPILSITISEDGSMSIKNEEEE
Chain of DENV-2 NS2B/NS3 (P29990 1476-1653): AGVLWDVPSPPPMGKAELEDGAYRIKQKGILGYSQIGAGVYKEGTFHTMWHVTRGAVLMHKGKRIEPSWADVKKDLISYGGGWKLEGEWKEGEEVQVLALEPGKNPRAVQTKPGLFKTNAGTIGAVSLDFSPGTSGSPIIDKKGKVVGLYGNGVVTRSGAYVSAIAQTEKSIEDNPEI

[6] = inhibitory percentage against M^pro at 200 μM, NA: no activity
[7] = ZIKV NS2B/NS3, substrate 100 μM, read-out: IC50
[8] = IC50 at substrate 50 μM, binding mechanism study, Boc-Gly-Arg-Arg-AMC 50 μM
[9] = IC50 at substrate 100 μM, binding mechanism study, Boc-Gly-Arg-Arg-AMC 100 μM
[10] = IC50 at substrate 150 μM, binding mechanism study, Boc-Gly-Arg-Arg-AMC 150 μM
[11] = IC50 at substrate 200 μM, binding mechanism study, Boc-Gly-Arg-Arg-AMC 200 μM

Molecule	IC50 [1] [µM]	CC50 at 67 h [2] [µM]	CC50 at 67 h [3] [µM]	inhibition at 20 µM ([4]; ZIKV NS2B/NS3, 20 μM compound) [%]	inhibition at 100 µM ([4]; ZIKV NS2B/NS3, 100 μM compound) [%]	IC50 [4, 7] [µM]	inhibition at 200 µM [1, 6] [%]	inhibition at 100 µM [5] [%]	also measured
CC1(C)CC[C@]2(C)CC=C3[C@]4(C)CC[C@H]5C(C)(C)[C@@H](O)CC[C@]5(C)[C@H]4CC[C@@]3(C)[C@@H]2C1 [Compound 1, taraxerol]	–	–	–	–	–	–	–	–	effect at 200 μM (%) [1, 6]: 48.0%; inhibition at 200 µM [1]: 48%
CC1(C)CC[C@]2(C)CC=C3[C@]4(C)CC[C@H]5C(C)(C)C(=O)CC[C@]5(C)[C@H]4CC[C@@]3(C)[C@@H]2C1 [Compound 1a, taraxerone]	–	–	–	–	–	–	–	–	effect at 200 μM (%) [1, 6]: 84.0%; obs. [1]: SP^#; inhibition at 200 µM [1]: 84%; solubility during the biological testing [1]: low solubility
COC(=O)c1cc(O)c(O)c(O)c1 [Compound 2, methyl gallate]	4.5 ± 1.8	> 150	52.9 ± 19.2	–	–	–	–	–	effect at 200 μM (%) [1, 6]: 68.0%; inhibition at 200 µM [1]: 68%
CC(C)OC(=O)c1cc(O)c(O)c(O)c1 [Compound 2a]	20.7 ± 8.2	> 150	78.5 ± 8.1	51 ± 3.4	98 ± 0.5	19.8 ± 0.5	78	48 ± 1	IC50 ([5]; IC50 (μM), DENV-2 NS2B/NS3, substrate 100 μM): > 100 µM
CCCCCCCCCCCCCCOC(=O)c1cc(O)c(O)c(O)c1 [Compound 2b]	–	–	–	–	–	84.9 ± 9	–	21 ± 3	inhibition at 20 µM [4]: 64 ± 2.5%; inhibition at 100 µM [4]: 55 ± 2.3%
C=CCCOC(=O)c1cc(O)c(O)c(O)c1 [Compound 2c]	35.8 ± 4.5	> 150	38.8 ± 4.4	25 ± 2.6	48 ± 2.2	> 100	80.4	18 ± 3	–
C=CCOC(=O)c1cc(O)c(O)c(O)c1 [Compound 2d]	12.4 ± 2.4	> 150	28.5 ± 3.2	25 ± 2.2	53 ± 1.7	92.5 ± 3.1	94.3	29 ± 1	–
CC(C)CCOC(=O)c1cc(O)c(O)c(O)c1 [Compound 2e]	2.6 ± 1	> 150	47 ± 6.5	72 ± 3.1	99 ± 0.2	13 ± 0.4	99.5	> 50	–
CC(C)=CCCC(C)=CCOC(=O)c1cc(O)c(O)c(O)c1 [Compound 2f]	9.5 ± 1	48.4 ± 13.2	72.1 ± 7.3	–	99 ± 0.4	2.7 ± 0.3	97	> 50	IC50 [4, 8]: 3.2 µM; IC50 [4, 9]: 3.04 µM; IC50 [4, 10]: 3.6 µM and 3.61 µM; IC50 [4, 11]: 3.78 µM; screening at 20 μM (%) ([4]; ZIKV NS2B/NS3, 20 μM compound): 98 ± 1.1%; mechanism of inhibition [4]: noncompetitive; inhibition at 20 µM [4]: 98%
CC(C)=CCCC(C)CCOC(=O)c1cc(O)c(O)c(O)c1 (centres unmarked) [Compound 2g]	88.7 ± 11.6	82.1 ± 31.5	32.1 ± 3.4	–	97 ± 1.1	1.9 ± 0.1	73.3	28 ± 2	IC50 [4, 8]: 2.93 µM; IC50 [4, 9]: 2.48 µM; IC50 [4, 10]: 2.96 µM; IC50 [4, 11]: 2.03 µM; screening at 20 μM (%) ([4]; ZIKV NS2B/NS3, 20 μM compound): 99 ± 0.4%; mechanism of inhibition [4]: noncompetitive; inhibition at 20 µM [4]: 99%
O=C(OCCCc1ccccc1)c1cc(O)c(O)c(O)c1 [Compound 2h]	–	–	–	–	99 ± 0.2	4.8 ± 0.5	45.1	20 ± 1	screening at 20 μM (%) ([4]; ZIKV NS2B/NS3, 20 μM compound): 96 ± 0.4%; inhibition at 20 µM [4]: 96%
C=CC(C)(CCC=C(C)C)OC(=O)c1cc(O)c(O)c(O)c1 (centres unmarked) [Compound 2i]	4 ± 0.9	> 150	98.9 ± 5	–	–	–	80	–	–
O=C(OCCc1ccccc1)c1cc(O)c(O)c(O)c1 [Compound 2j]	–	> 150	22.9 ± 3.2	50 ± 3.8	82 ± 2.7	19.7 ± 2.1	60.8	22 ± 1	obs. [1]: SP^#; solubility during the biological testing [1]: solubility problems
CCC=CCCOC(=O)c1cc(O)c(O)c(O)c1 [Compound 2k]	–	–	–	86 ± 0.8	100 ± 0.1	6.1 ± 0.6	41.9	28 ± 4	–
COC(=O)c1cc(OC)c(OC)c(OC)c1 [Compound 2l, Methyl 3,4,5-trimethoxybenzoate]	–	> 150	> 150	–	–	–	55.5	–	obs. [1]: SP^#; solubility during the biological testing [1]: solubility problems
O=c1c2ccccc2[se]n1-c1ccccc1 [Ebselen, reference compound]	–	–	–	–	–	–	–	–	effect (%) of positive control ([1]; Ebselen at 10 μM): 90%
methyl 3,5-dihydroxy-4-methoxybenzoate [Compound 2m]	–	–	–	–	–	–	–	–	effect at 200 μM (%) [1, 6]: 44.2%

Source: publication PMC11541513, “Inhibitory Effects of Mangifera indica Secondary Metabolites and Their Synthetic Derivatives against SARS-CoV-2 M^pro and NS2B/NS3 (ZIKV and DENV-2)” (ACS Omega, 2024)
